# Test results taken from ChEMBL document CHEMBL4138123, “Design, synthesis and biological evaluation of novel pyrazolochalcones as potential modulators of PI3K/Akt/mTOR pathway and inducers of apoptosis in breast cancer cells” (Eur J Med Chem, 2017).
# Tests used:
# Assay type in all cases: functional
# CAKI-1 [1] = assay: Cytotoxicity against human Caki1 cells assessed as cell growth at 10 uM after 48 hrs by sulforhodamine B assay relative to control; conditions: CAKI-1, 48 h, read-out: Activity
# SK-MEL-2 [2] = assay: Cytotoxicity against human SK-MEL-2 cells assessed as cell growth at 0.1 uM after 48 hrs by sulforhodamine B assay relative to control; conditions: SK-MEL-2, 48 h, read-out: Activity
# CAKI-1 [3] = assay: Cytotoxicity against human Caki1 cells assessed as cell growth at 0.01 uM after 48 hrs by sulforhodamine B assay relative to control; conditions: CAKI-1, 48 h, read-out: Activity
# CAKI-1 [4] = assay: Cytotoxicity against human Caki1 cells assessed as cell growth at 1 uM after 48 hrs by sulforhodamine B assay relative to control; conditions: CAKI-1, 48 h, read-out: Activity
# LOX IMVI [5] = assay: Cytotoxicity against human LOXIMVI cells assessed as cell growth at 0.01 uM after 48 hrs by sulforhodamine B assay relative to control; conditions: read-out: Activity
# SK-MEL-2 [6] = assay: Cytotoxicity against human SK-MEL-2 cells assessed as cell growth at 100 uM after 48 hrs by sulforhodamine B assay relative to control; conditions: SK-MEL-2, 48 h, read-out: Activity
# LOX IMVI [7] = assay: Cytotoxicity against human LOXIMVI cells assessed as cell growth at 100 uM after 48 hrs by sulforhodamine B assay relative to control; conditions: read-out: Activity
# SK-MEL-2 [8] = assay: Cytotoxicity against human SK-MEL-2 cells assessed as cell growth at 0.01 uM after 48 hrs by sulforhodamine B assay relative to control; conditions: SK-MEL-2, 48 h, read-out: Activity
# CAKI-1 [9] = assay: Cytotoxicity against human Caki1 cells assessed as cell growth at 100 uM after 48 hrs by sulforhodamine B assay relative to control; conditions: CAKI-1, 48 h, read-out: Activity
# LOX IMVI [10] = assay: Cytotoxicity against human LOXIMVI cells assessed as cell growth at 0.1 uM after 48 hrs by sulforhodamine B assay relative to control; conditions: read-out: Activity
# LOX IMVI [11] = assay: Cytotoxicity against human LOXIMVI cells assessed as cell growth at 1 uM after 48 hrs by sulforhodamine B assay relative to control; conditions: read-out: Activity
# SK-MEL-2 [12] = assay: Cytotoxicity against human SK-MEL-2 cells assessed as cell growth at 1 uM after 48 hrs by sulforhodamine B assay relative to control; conditions: SK-MEL-2, 48 h, read-out: Activity
# CAKI-1 [13] = assay: Cytotoxicity against human Caki1 cells assessed as cell growth at 0.1 uM after 48 hrs by sulforhodamine B assay relative to control; conditions: CAKI-1, 48 h, read-out: Activity
# LOX IMVI [14] = assay: Cytotoxicity against human LOXIMVI cells assessed as cell growth at 10 uM after 48 hrs by sulforhodamine B assay relative to control; conditions: read-out: Activity
# SK-MEL-2 [15] = assay: Cytotoxicity against human SK-MEL-2 cells assessed as cell growth at 10 uM after 48 hrs by sulforhodamine B assay relative to control; conditions: SK-MEL-2, 48 h, read-out: Activity
# CAKI-1 [16] = assay: Cytotoxicity against human Caki1 cells assessed as growth inhibition after 48 hrs by sulforhodamine B assay; conditions: CAKI-1, 48 h
# HOP-92 [17] = assay: Cytotoxicity against human HOP92 cells assessed as cell growth at 10 uM after 48 hrs by sulforhodamine B assay relative to control; conditions: HOP-92, 48 h, read-out: Activity
# SF-295 [18] = assay: Cytotoxicity against human SF295 cells assessed as cell growth at 1 uM after 48 hrs by sulforhodamine B assay relative to control; conditions: SF-295, 48 h, read-out: Activity
# SF-295 [19] = assay: Cytotoxicity against human SF295 cells assessed as cell growth at 0.1 uM after 48 hrs by sulforhodamine B assay relative to control; conditions: SF-295, 48 h, read-out: Activity
# HOP-92 [20] = assay: Cytotoxicity against human HOP92 cells assessed as cell growth at 0.1 uM after 48 hrs by sulforhodamine B assay relative to control; conditions: HOP-92, 48 h, read-out: Activity
# HOP-92 [21] = assay: Cytotoxicity against human HOP92 cells assessed as cell growth at 100 uM after 48 hrs by sulforhodamine B assay relative to control; conditions: HOP-92, 48 h, read-out: Activity
# SF-295 [22] = assay: Cytotoxicity against human SF295 cells assessed as cell growth at 100 uM after 48 hrs by sulforhodamine B assay relative to control; conditions: SF-295, 48 h, read-out: Activity
# HOP-92 [23] = assay: Cytotoxicity against human HOP92 cells assessed as cell growth at 1 uM after 48 hrs by sulforhodamine B assay relative to control; conditions: HOP-92, 48 h, read-out: Activity
# SF-295 [24] = assay: Cytotoxicity against human SF295 cells assessed as cell growth at 10 uM after 48 hrs by sulforhodamine B assay relative to control; conditions: SF-295, 48 h, read-out: Activity
# SF-295 [25] = assay: Cytotoxicity against human SF295 cells assessed as growth inhibition after 48 hrs by sulforhodamine B assay; conditions: SF-295, 48 h
# HOP-92 [26] = assay: Cytotoxicity against human HOP92 cells assessed as cell growth at 0.01 uM after 48 hrs by sulforhodamine B assay relative to control; conditions: HOP-92, 48 h, read-out: Activity
# SF-295 [27] = assay: Cytotoxicity against human SF295 cells assessed as cell growth at 0.01 uM after 48 hrs by sulforhodamine B assay relative to control; conditions: SF-295, 48 h, read-out: Activity
# HOP-92 [28] = assay: Cytotoxicity against human HOP92 cells assessed as growth inhibition after 48 hrs by sulforhodamine B assay; conditions: HOP-92, 48 h; for CC50: read-out: LC50 (the source's name)
SMILES,growth at 10 µM (CAKI-1 [1]) [%],growth at 0.1 µM (SK-MEL-2 [2]) [%],growth at 0.01 µM (CAKI-1 [3]) [%],growth at 1 µM (CAKI-1 [4]) [%],growth at 0.01 µM (LOX IMVI [5]) [%],growth at 100 µM (SK-MEL-2 [6]) [%],growth at 100 µM (LOX IMVI [7]) [%],growth at 0.01 µM (SK-MEL-2 [8]) [%],growth at 100 µM (CAKI-1 [9]) [%],growth at 0.1 µM (LOX IMVI [10]) [%],growth at 1 µM (LOX IMVI [11]) [%],growth at 1 µM (SK-MEL-2 [12]) [%],growth at 0.1 µM (CAKI-1 [13]) [%],growth at 10 µM (LOX IMVI [14]) [%],growth at 10 µM (SK-MEL-2 [15]) [%],LC50 (CAKI-1 [16]) [µM],TGI (CAKI-1 [16]) [µM],growth at 10 µM (HOP-92 [17]) [%],growth at 0.1 µM (HOP-92 [20]) [%],growth at 100 µM (HOP-92 [21]) [%],other results
COc1cc(-c2cc(/C=C/C(=O)c3ccc(F)c(F)c3)[nH]n2)cc(OC)c1OC,12,98,95,84,93,-64,-86,93,3,94,92,94,94,8,-28,> 100,> 100,,,,
COc1cc(-c2cc(/C=C/C(=O)c3ccc(N)cc3)[nH]n2)cc(OC)c1OC,,111,,,98,-85,-82,106,,99,83,104,,-78,-15,,,28,82,-35,growth at 1 µM (SF-295 [18]): 82%; growth at 0.1 µM (SF-295 [19]): 89%; growth at 100 µM (SF-295 [22]): -95%; growth at 1 µM (HOP-92 [23]): 79%; growth at 10 µM (SF-295 [24]): 4%; GI50 (SF-295 [25]): 2.55 µM; LC50 (SF-295 [25]): 34.8 µM; TGI (SF-295 [25]): 10.9 µM; growth at 0.01 µM (HOP-92 [26]): 88%; growth at 0.01 µM (SF-295 [27]): 88%; GI50 (HOP-92 [28]): 3.68 µM; TGI (HOP-92 [28]): 27.6 µM; CC50 (HOP-92 [28]): > 100 µM
COc1cc(-c2cc(/C=C/C(=O)c3ccc4c(c3)OCO4)[nH]n2)cc(OC)c1OC,35,93,96,92,93,-60,-54,90,27,93,91,101,96,-67,51,> 100,> 100,,,,
COc1cc(-c2cc(/C=C/C(=O)c3ccc(Cl)c(Cl)c3)[nH]n2)cc(OC)c1OC,62,88,91,87,96,-60,-58,94,11,92,88,99,91,16,68,> 100,> 100,-8,90,-56,growth at 1 µM (HOP-92 [23]): 89%; growth at 0.01 µM (HOP-92 [26]): 89%; TGI (HOP-92 [28]): 8.25 µM; CC50 (HOP-92 [28]): 75.9 µM
